Assay results reported in article PMC6928761, “Trypanocidal Mechanism of Action and in silico Studies of p-Coumaric Acid Derivatives” (International Journal of Molecular Sciences, 2019).
Read-outs that look alike come from different tables or passages of the source.

Tests used:
Trypanosoma brucei = test system: Trypanosoma brucei; parameters: method as in Steverding et al. (2016) [47]; settings: ref Steverding et al. (2016) [47]; cited from earlier work
T. cruzi amastigotes = test system: T. cruzi amastigotes; parameters: method as in Lima et al. (2015) [41]; settings: ref Lima et al. (2015) [41]; read-out: activity against T. cruzi amastigotes; cited from earlier work
[1] = test system: T. cruzi (strain Y) epimastigotes; test: Effect on T. cruzi epimastigote forms (24 h, Neubauer chamber count); assay type: cell-based, Trypanosoma cruzi; settings: for trypanocidal activity (in words): epimastigote forms
Description: (§1) The trypanocidal activity of the p-coumaric derivatives (1–12) were evaluated against epimastigotes and trypomastigote forms of T. cruzi (strain Y) at 24 h of incubation and in host LLC-MK2 cells at 24 h of exposure to different concentrations: 100; 50; 25; 12.5; 6.25; 3.12; and 1.56 μg/mL. In the MTT assay it was possible to calculate the IC50 of the tested substances through cell viability, which was calculated in relation to the negative control, whose absorbance was considered 100%.
Preparation of T. cruzi epimastigote was performed by cultivation in 96-well Y-staining plates at a density of 10^6 cells/mL, and using liver tryptose infusion with 10% fetal bovine serum (SFB) supplementation, and 1% antibiotic. They were then treated with p-coumaric derivatives. The grown parasites presenting inhibition were collected and quantified in a Neubauer chamber after incubation at 28 °C for 24 h. To determine relative viability, parasites treated only with sterile PBS medium were used as negative controls (viability of 100%), and experiments were performed in triplicate.

LLC-MK2 cells = test: Cytotoxicity evaluation (mammalian cells), MTT assay; assay type: cell-based; settings: Macaca mulatta, read-out: LLC-MK2 IC50
Description: as §1
For cell viability we used a standard MTT assay. LLC-MK2 cells were inoculated in DMEM medium, treated with different concentrations of p-coumaric derivatives and incubated at 37 °C for 24 h. MTT (Amresco, Solon, Ohio, USA; 5 mg/mL) was inserted and the cells were incubated for 4 h.
In the next procedure, formazan was solubilized in 10% sodium dodecyl sulfate (SDS; Vetec, São Paulo, Brazil). For cell viability analysis, a plate reader (Biochrom® Asys Expert Plus, CAMBRIGE, UK) with a wavelength of 570 nm was used. While in relative cell viability cells were calculated, which were treated with sterile PBS in triplicate for negative controls and experiments.

[2] = test system: T. cruzi (strain Y) trypomastigotes; test: Effect on T. cruzi trypomastigote forms (24 h); assay type: cell-based; settings: Trypanosoma cruzi, read-out: Y strain (Tripomastigotes) IC50
Description: as §1
Acquisition of T. cruzi trypomastigotes was by infection of LLCMK2 cells using trypomastigotes in T-25/75cm^2 containers at 37 °C with 5% CO2 atmosphere in DMEM (Vitrocell, São Paulo, Brazil) and supplementation of 1% antibiotics and 2% SFB for 24 h. Then the trypomastigotes were plated and treated with p-coumaric acid derivatives. Cell viability was counted after 24 h of incubation at 37 °C. LC50 was obtained. While relative cell viability was calculated using sterile PBS-treated cells for both negative controls and experiments, all in triplicate.

[3] = test system: T. cruzi epimastigote forms; test: Cell death profile, 7-AAD / annexin V-PE flow cytometry; assay type: cell-based, Trypanosoma cruzi; settings: 5.164 and 10.329 μM, 24 h
Description: Epimastigote forms were used to assess the cell death profile using labeling with AxPE and 7-AAD. For data interpretation, the cells were divided into four cell populations: viable cells, with low levels of labeling for both fluorochromes (un-labeled); necrotic cells, labeled only with 7-AAD (7AAD +); apoptotic cells, labeled with annexin V-PE only (/ AxPE +); and doubly labeled late apoptotic cells (7AAD +/AxPE +).
Evaluation of the mechanism by which compound 7 induced cell death was performed using flow cytometry with 7-AAD (7-aminoactinomicyn D) and phycoerythrin-labeled Annexin V (AxPE) as fluorescent markers. 7-AAD is a molecule capable of specifically interleaving into DNA. However, it is not able to penetrate cells with intact membranes. Cells with high 7-AAD labeling are thus considered necrotic due to loss of membrane integrity. Annexin V is a 36 KDa protein that in the presence of calcium ions presents high affinity for phosphatidylserine. Thus, Ax/PE is used to evaluate external phosphatidylserine as a marker of apoptosis.
T. cruzi epimastigote forms were cultured at a density of 10^6 cells/mL in the presence of compound 7 (at concentrations of 5.164 and 10.329 μM) for 24 h in a BOD greenhouse. The cells were then transferred to cytometry tubes, centrifuged at 4000 RPM for 5 min, and washed with PBS once, and then washed twice with binding buffer (pH 7.4; 10 mM HEPES solution; 140 mM NaCl and 2.5 CaCl2 mM). After final centrifugation, the pellet was re-suspended in 100 µl binding buffer, 5 µl 7-AAD (0.5 mg/mL), and 5 µl Ax/PE. […] After 15 min of incubation in the dark, 400 µl of binding buffer was added to each tube and cells were analyzed on FACSCalibur (BD Biosciences, San José, Califórnia, EUA).
For each tube, a minimum of 10^4 cells were analyzed for quantitation of the percentage of unlabeled, and individually or double labeled 7-AAD and Ax/PE cells. […] Ax/PE labeled cells were read by an FL2 detector (563 at 606 nm, yellow fluorescence), while 7-AAD labeled cells were read at 615 to 645 nm wavelength (red fluorescence, FL3 detector).

[4] = test system: T. cruzi epimastigote forms; test: Cytoplasmic reactive oxygen species, DCFH-DA flow cytometry; assay type: cell-based, Trypanosoma cruzi; settings: both treated groups (5.164 and 10.329 μM) vs control, 24 h
Description: The increased presence of reactive oxygen species (ROS) in the cytoplasm of compound 7 treated epimastigote cells was analyzed using the 2′,7′-dichlorofluorescein diacetate reagent (DCFH-DA). As a lipophilic molecule, when internalized in cells it is cleaved by cytoplasmic esterase into DCFH (reduced 2′-7′-dichlorofluorescein), and as it is unable to cross membranes DCFH reacts with intra-cytoplasmic ROSs producing DCF (oxidized 2′-7′-dichlorofluorescein). DCF emits green fluorescence, and the fluorescent intensity emitted by the cell is directly proportional to the intra-cytoplasmic ROS concentration.
A concentration of 10^6 epimastigotes/mL were placed in 24-well plates in the presence of BIS (5.164 and 10.329 μM). […] After 24 h of incubation with compound 7, the cells were harvested, centrifuged (2800 RPM for 7 min), washed with PBS twice, and re-suspended in 500 µL PBS. At the end, the cells were analyzed by flow cytometer.
In accordance with Kessler et al. (2013), the level of labeling in each group was assessed by the mean geometric fluorescence intensity. The results obtained were expressed as relative fluorescence intensity using the formula:(1) Relative fluorescence=mTEST/mCONTROL where: • mTEST = geometric mean of the group to be analyzed; • mCONTROL = geometric mean of the control group.

[5] = test system: T. cruzi epimastigote forms; test: Mitochondrial transmembrane potential, rhodamine 123 flow cytometry; assay type: cell-based, Trypanosoma cruzi; settings: 5.164 and 10.329 μM, 24 h
Description: Mitochondrial transmembrane potential (ΔΨm) was assessed using rhodamine 123 fluorescent dye (Rho123).
Rhodamine 123 (Rho123) is a lipophilic and cationic dye that under normal conditions accumulates in the mitochondrial inter-membrane space. Presenting affinity with hydrogen ions, there is a reduction in the concentration of H^+ ions in the inter-membrane space, which decreases Rho123 accumulation, as illustrated in Figure 5. Changes in ΔΨm can be measured using Rho123, measuring the decrease in green fluorescence.
The compound 7 (5.164 and 10.329 μM) was added to the epimastigotes (10^6 cells) in 24-well plates. At 24 h of incubation, cells were transferred to tubes, centrifuged and washed with PBS. The cells were then re-suspended in 100 µL PBS, and 5 µL of Rho123 solution (200 µg/mL in absolute ethanol) was added to obtain a final concentration of 10 µg/mL. Samples were incubated in the dark for 30 min, washed twice with PBS, and re-suspended in PBS (500 µL/tube). Finally, the samples were analyzed using flow cytometry. Results were evaluated using relative fluorescent intensity, calculated as described in the previous item.

[6] = Trypanosoma cruzi, 24 h, read-out: Y strain (Epimastigotes) IC50, 24 h incubation

SMILES	IC50 [1, 6] [µM]	IC50 (LLC-MK2 cells; LLC-MK2, 24 h) [µM]	trypanocidal activity (in words) [1]	also measured
CC(C)CCOC(=O)/C=C/c1ccc(O)c(O)c1 [isopentyl caffeate]	–	–	–	effect on parasite growth (Trypanosoma brucei): inhibited parasite growth
CCOC(=O)/C=C/c1ccc(O)c(O)c1 [ethyl caffeate]	–	–	–	IC50 (T. cruzi amastigotes): 18.3 µM
CC(C)OC(=O)/C=C/c1ccc(O)cc1 [compound 4]	335 ± 54.3	290 ± 49	–	–
Cc1ccc(COC(=O)/C=C/c2ccc(O)cc2)cc1 [compound 11]	75.5 ± 13.4	160 ± 97.6	did not show significant trypanocidal activity	–
CCCCOC(=O)/C=C/c1ccc(O)cc1 [compound 6]	155 ± 33.1	274 ± 46.8	–	–
CCCCCOC(=O)/C=C/c1ccc(O)cc1 [compound 7, pentyl p-coumarate]	5.16 ± 1.28	123 ± 22.6	good trypanocidal activity	IC50 [2]: 61.6 ± 28.6 µM; cell death profile [3]: cell death by necrosis; percentage of 7-AAD-labeled cells [3]: increase; percentage of viable cells [3]: reduction; relative fluorescence (DCF, reactive oxygen species) [4]: increase; rhodamine 123 accumulation (mitochondrial transmembrane potential) [5]: reduction
CCCCCCOC(=O)/C=C/c1ccc(O)cc1 [compound 9]	68.9 ± 18.1	131 ± 16.9	–	–
CC(C)CCOC(=O)/C=C/c1ccc(O)cc1 [compound 8, isopentyl p-coumarate]	13.2 ± 2.56	120 ± 19.2	good trypanocidal activity	IC50 [2]: 111 ± 38.7 µM
CCCOC(=O)/C=C/c1ccc(O)cc1 [compound 3, Propyl p-coumarate]	16.8 ± 1.93	446 ± 187	good trypanocidal activity	IC50 [2]: 117 ± 59.1 µM
CCCCCCCCCCCCOC(=O)/C=C/c1ccc(O)cc1 [compound 10]	50.6 ± 18.9	141 ± 15.2	–	–
CCOC(=O)/C=C/c1ccc(O)cc1 [compound 2]	216 ± 109	443 ± 109	–	–
CC(C)c1ccc(COC(=O)/C=C/c2ccc(O)cc2)cc1 [compound 12]	68.9 ± 18.1	2.74	did not show significant trypanocidal activity	IC50 ([1]; read-out: Y strain (Epimastigotes) IC50, 24 h incubation): 40.1 ± 10.1 µM
COC(=O)/C=C/c1ccc(O)cc1 [compound 1, (E)-Methyl 3-(4-hydroxyphenyl)acrylate]	–	–	–	IC50 ([1]; Trypanosoma cruzi, 24 h incubation, read-out: Y strain (Epimastigotes) IC50): 601 ± 249 µM; IC50 (LLC-MK2 cells; LLC-MK2, 24 h exposure, MTT): > 561 µM
COCCOC(=O)/C=C/c1ccc(O)cc1 [compound 5, 2-methoxyethyl p-coumarate]	32 ± 5.39	> 450	good trypanocidal activity	IC50 [2]: 360 ± 112 µM
